In patent US8697869B2, “3-(heteroaryl-amino)-1,2,3,4-tetrahydro-9H-carbazole derivatives and their use as prostaglandin D2 receptor modulators” (Actelion Pharmaceuticals Ltd., priority 2010, dated 2014):

Legend:
hCRTH2 receptor [1] = target: T1, hCRTH2 receptor (Homo sapiens (Human), UniProt Q9Y5Y4); assay: hCRTH2 receptor membranes radioligand displacement assay (3H-PGD2); conditions: 3H-PGD2 2.5 nM, HEK293-hCRTH2 membranes, Binding-Buffer with 0.1% BSA
Procedure: Biological Assays: Preparation of hCRTH2 Receptor Membranes and Radioligand Displacement Assay:
(§1) First, recombinant HEK293-hCRTH2 cells were detached from culture plates into 5 ml buffer A/plate (Buffer A: 5 mM Tris, 1 mM MgCl2-6H2O pH=7.4) using a rubber policeman. Cells were then transferred into centrifugation tubes and centrifuged for 5 min at 400 g. The cell pellet was resuspended in the same buffer and tubes were frozen at −80° C. Cells were thawed and membrane fragments were generated by homogenization using a polytron homogenizer (30 seconds). The membrane fragments were then centrifuged at 3000 g for 20 minutes and resuspended in buffer C (Buffer C: 75 mM Tris, 25 mM MgCl2, 250 mM Saccharose pH 7.4). Aliquots of membrane fragements were stored at −20° C.
(§2) Binding assay was performed in a final assay volume of 250 μl. First, 25 μl of test compound, previously diluted in Binding-Buffer (Binding-Buffer: 50 mM Tris-Base, 100 mM NaCl, 1 mM EDTA, 0.1% BSA (protease free), 0.01% NaN3, 10 mM MnCl2 pH 7.0) was placed into each well. After addition of 75 μl Binding-Buffer, 50 μl of the radioligand ^3H-PGD2 (at 2.5 nM (220.000 dpm/well) from ANAWA ART0662) was added to each well. Binding assay was started by addition of 100 μl CRTH2 membrane fragments, reaching a final concentration of 20 μg/well. For non-specific binding, PGD2 was added to the reaction mixture to […] final concentration. This assay mix was incubated for 90 minutes at room temperature and then filtered through a GF/C filter 96-well plate which was pre-soaked for 3 hours in 0.5% polyethyleneimine (PEI). The filter-wells were washed three times with ice cold Binding-Buffer. Then, 40 μl of Microscint-40 (Packard) was added to each well and the retained radioactivity quantified in a Topcount (Packard).

hCRTH2 receptor [2] = target: T1, hCRTH2 receptor; assay: Radioligand displacement assay in presence of human serum albumin (HSA); conditions: 3H-PGD2 2.5 nM, Binding-Buffer with 0.5% HSA instead of 0.1% BSA
Procedure: as §1, §2
Radioligand Displacement Assay-Human Serum Albumin (HSA):
Radioligand displacement assay in presence of human serum albumin (HSA) was performed as described above, with following modifications. Binding-Buffer-HSA: Binding-buffer+0.5% Sigma Albumin from Human serum A1887 (instead of 0.1% BSA). A volume of 25 μl test compound, previously diluted in Binding-Buffer-HSA was placed into each well. After addition of 75 μl Binding-Buffer-HSA, 50 μl of ^3H-PGD2 (at 2.5 nM (220.000 dpm/well) from ANAWA ART0662) was added to each well. Remaining protocol was identical as described above.

eosinophils = assay: Eosinophil shape change assay with human plasma; assay type: cell-based; conditions: human polymorphonuclear cells, 50% human plasma, activated with 100 nM PGD2
Procedure: After obtaining informed consent, blood samples were drawn by venipuncture according to the protocol approved by the ethics committee of Basel, Switzerland. Polymorphonuclear leukocytes (containing eosinophils, basophils and neutrophils) were isolated using the Polymorphprep™ method (Axis-Shield). In brief, anticoagulated whole blood was layered onto a Polymorphprep gradient (density 1.113 g/ml) and centrifuged at 500 g for 30 min. The polymorphonuclear cell fraction was harvested and depleted for erythrocytes by hypotonic saline lysis.
The polymorphonuclear cells were resuspended in assay buffer (1×PBS with Ca^2+/Mg^2+ supplemented with 0.1% BSA, 10 mM HEPES, and 10 mM Glucose, pH 7.4) at 5×10^6 cells/ml and stained with anti-CD49d-APC ((APC=Allophycocyanin) for 1 hour at RT. Test compounds, at various concentrations, were preincubated 10 min in human plasma (anticoagulated with a thrombin inhibitor). Then, human plasma was added to the polymorphonuclear cells to 50% of final assay volume with polymorphonuclear cells at 4×10^6 cells/rd. After incubation for 10 minutes at 37° C., the polymorphonuclear cells were activated for 5 min at 37° C. by addition of PGD2 at 100 nM final concentration. Activation was stopped by addition of 0.5 ml paraformaldehyde (1%).
Immediately after fixation with paraformaldehyde, the samples were analyzed by FACSCanto flow cytometer (BD Biosciences) and target cells were identified by their forward-scatter (FSC) and side-scatter (SSC) characteristics. Eosinophils were identified by the anti-CD49d-APC signal and their characteristic side-scatter (SSC) profile. Shape change responses, indicative of eosinophil activation, were quantified as the percent of cells with an increased forward-scatter.

T1 sequence (Q9Y5Y4 whole entry): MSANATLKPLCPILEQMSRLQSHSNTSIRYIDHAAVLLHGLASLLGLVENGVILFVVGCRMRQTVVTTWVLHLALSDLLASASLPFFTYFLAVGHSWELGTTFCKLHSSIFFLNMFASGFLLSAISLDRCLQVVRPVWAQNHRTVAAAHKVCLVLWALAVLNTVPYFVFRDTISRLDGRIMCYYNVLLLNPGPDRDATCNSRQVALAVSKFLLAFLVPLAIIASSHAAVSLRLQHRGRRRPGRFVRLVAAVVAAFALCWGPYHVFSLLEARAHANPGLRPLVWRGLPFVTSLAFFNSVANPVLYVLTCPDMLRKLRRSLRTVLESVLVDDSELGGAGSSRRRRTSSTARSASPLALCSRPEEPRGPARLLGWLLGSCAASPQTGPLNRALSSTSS

Structure (SMILES)	IC50 (hCRTH2 receptor [1]) [nM]	IC50 (hCRTH2 receptor [2]) [nM]	IC50 (eosinophils; Eosinophil) [nM]	IC50 (eosinophils) [nM]
CCCN(c1ncc(Cl)cn1)[C@H]1CCc2c(c3cc(F)ccc3n2CC(=O)O)C1 [Example 25, (3S)-2-(3-((5-chloropyrimidin-2-yl)(propyl)amino)-6-fluoro-3,4-dihydro-1H-carbazol-9(2H)-yl)acetic acid]	3.9	17	13	–
CN(c1nc2ccc(F)cc2o1)[C@H]1CCc2c(c3cc(F)ccc3n2CC(=O)O)C1 [Example 43, (3S)-2-(6-fluoro-3-((6-fluorobenzo[d]oxazol-2-yl)(methyl)amino)-3,4-dihydro-1H-carbazol-9(2H)-yl)acetic acid]	4.6	12	6	–
CN(c1nc2cc(F)ccc2o1)[C@H]1CCc2c(c3cc(F)ccc3n2CC(=O)O)C1 [Example 29, (3S)-2-(6-fluoro-3-((5-fluorobenzo[d]oxazol-2-yl)(methyl)amino)-3,4-dihydro-1H-carbazol-9(2H)-yl)acetic acid]	4.1	7	4	–
CN(c1nc2ccccc2o1)[C@H]1CCc2c(c3cc(F)ccc3n2CC(=O)O)C1 [Example 19, (3S)-2-(3-(benzo[d]oxazol-2-yl(methyl)amino)-6-fluoro-3,4-dihydro-1H-carbazol-9(2H)-yl)acetic acid]	7.3	17	31	–
CN(c1ncc(F)cn1)[C@H]1CCc2c(c3cc(F)ccc3n2CC(=O)O)C1 [Example 7, (3S)-2-(6-fluoro-3-((5-fluoropyrimidin-2-yl)(methyl)amino)-3,4-dihydro-1H-carbazol-9(2H)-yl)acetic acid]	2.5	7	8	–
CN(c1ncc(C2CC2)cn1)[C@H]1CCc2c(c3cc(F)ccc3n2CC(=O)O)C1 [Example 42, (3S)-2-(3-((5-cyclopropylpyrimidin-2-yl)(methyl)amino)-6-fluoro-3,4-dihydro-1H-carbazol-9(2H)-yl)acetic acid]	2.2	36	19	–
CN(c1ncc2ccccc2n1)[C@H]1CCc2c(c3cc(F)ccc3n2CC(=O)O)C1 [Example 28, (3S)-2-(6-fluoro-3-(methyl(quinazolin-2-yl)amino)-3,4-dihydro-1H-carbazol-9(2H)-yl)acetic acid]	12	22	25	–
CN(c1ncc(Cl)cn1)[C@H]1CCc2c(c3cc(F)ccc3n2CC(=O)O)C1 [Example 9, (3S)-2-(3-((5-chloropyrimidin-2-yl)(methyl)amino)-6-fluoro-3,4-dihydro-1H-carbazol-9(2H)-yl)acetic acid]	2.7	11	15	–
O=C(O)Cn1c2c(c3cc(F)ccc31)C[C@@H](Nc1ncc(F)cn1)CC2 [Example 1, (3S)-2-(6-fluoro-3-((5-fluoropyrimidin-2-yl)amino)-3,4-dihydro-1H-carbazol-9-(2H)-yl)acetic acid]	16	20	–	21
COCCN(c1ncc(Cl)cn1)[C@H]1CCc2c(c3cc(F)ccc3n2CC(=O)O)C1 [Example 34, (3S)-2-(3-((5-chloropyrimidin-2-yl)(2-methoxyethyl)amino)-6-fluoro-3,4-dihydro-1H-carbazol-9(2H)-yl)acetic acid]	5.9	14	8	–
O=C(O)Cn1c2c(c3cc(F)ccc31)C[C@H](Nc1ncc(Cl)cn1)CC2 [Example 4, (3R)-2-(6-fluoro-3-((5-chloropyrimidin-2-yl)amino)-3,4-dihydro-1H-carbazol-9-(2H)-yl)acetic acid]	13	27	–	722
CN(c1nc(C(F)(F)F)nc2ccccc12)[C@H]1CCc2c(c3cc(F)ccc3n2CC(=O)O)C1 [Example 22, (3S)-2-(6-fluoro-3-(methyl(2-(trifluoromethyl)quinazolin-4-yl)amino)-3,4-dihydro-1H-carbazol-9(2H)-yl)acetic acid]	16	380	–	–
CN(c1nc2cc(Cl)ccc2s1)[C@H]1CCc2c(c3cc(F)ccc3n2CC(=O)O)C1 [Example 33, (3S)-2-(3-((5-chlorobenzo[d]thiazol-2-yl)(methyl)amino)-6-fluoro-3,4-dihydro-1H-carbazol-9(2H)-yl)acetic acid]	10	8	46	–
CN(c1nccc(C(F)(F)F)n1)[C@H]1CCc2c(c3cc(F)ccc3n2CC(=O)O)C1 [Example 13, (3S)-2-(6-fluoro-3-(methyl(4-(trifluoromethyl)pyrimidin-2-yl)amino)-3,4-dihydro-1H-carbazol-9(2H)-yl)acetic acid]	12	769	–	–
CN(c1nc2ccccc2s1)[C@H]1CCc2c(c3cc(F)ccc3n2CC(=O)O)C1 [Example 20, (3S)-2-(3-(benzo[d]thiazol-2-yl(methyl)amino)-6-fluoro-3,4-dihydro-1H-carbazol-9(2H)-yl)acetic acid]	8.1	40	–	–
CN(c1ncc(-c2ccccc2)cn1)[C@H]1CCc2c(c3cc(F)ccc3n2CC(=O)O)C1 [Example 30, (3S)-2-(6-fluoro-3-(methyl(5-phenylpyrimidin-2-yl)amino)-3,4-dihydro-1H-carbazol-9(2H)-yl)acetic acid]	11	41	–	–
CN(c1ncc(Cl)cn1)C1CCc2c(c3cc(C(F)(F)F)ccc3n2CC(=O)O)C1 (centres unmarked) [Example 58, 2-(3-((5-chloropyrimidin-2-yl)(methyl)amino)-6-(trifluoromethyl)-3,4-dihydro-1H-carbazol-9(2H)-yl)acetic acid]	3.5	15	–	–
Cc1cc(N(C)C2CCc3c(c4cc(F)ccc4n3CC(=O)O)C2)no1 (centres unmarked) [Example 52, 2-(6-fluoro-3-(methyl(5-methylisoxazol-3-yl)amino)-3,4-dihydro-1H-carbazol-9(2H)-yl)acetic acid]	7.4	58	–	–
Cc1ccc2c(c1)c1c(n2CC(=O)O)CCC(N(C)c2ncc(Cl)cn2)C1 (centres unmarked) [Example 55, 2-(3-((5-chloropyrimidin-2-yl)(methyl)amino)-6-methyl-3,4-dihydro-1H-carbazol-9(2H)-yl)acetic acid]	5.5	40	–	–
CN(c1ccon1)C1CCc2c(c3cc(F)ccc3n2CC(=O)O)C1 (centres unmarked) [Example 51, 2-(6-fluoro-3-(isoxazol-3-yl(methyl)amino)-3,4-dihydro-1H-carbazol-9(2H)-yl)acetic acid]	6.4	53	–	–
CN(c1ccc(C(F)(F)F)cn1)[C@H]1CCc2c(c3cc(F)ccc3n2CC(=O)O)C1 [Example 35, (3S)-2-(6-fluoro-3-(methyl(5-(trifluoromethyl)pyridin-2-yl)amino)-3,4-dihydro-1H-carbazol-9(2H)-yl)acetic acid]	9.1	20	–	–
O=C(O)Cn1c2c(c3cc(F)ccc31)C[C@@H](N(CC(F)F)c1ncc(Cl)cn1)CC2 [Example 41, (3S)-2-(3-((5-chloropyrimidin-2-yl)(2,2-difluoroethyl)amino)-6-fluoro-3,4-dihydro-1H-carbazol-9(2H)-yl)acetic acid]	15	68	–	–
